The IC50 is the concentration that inhibits the measured activity by half.

Among the data in patent US11739098B2 (BRISTOL-MYERS SQUIBB COMPANY, priority 2017, dated 2023) are IC50 values, retold here.

Format in all cases: cell-based
Assay [1] has as its target T1, human TLR7 (Homo sapiens, UniProt Q9NYK1).
T1 construct: host or cells: HEK-Blue cells (HEK293-derived reporter line)
T1 sequence (Q9NYK1 27-1049): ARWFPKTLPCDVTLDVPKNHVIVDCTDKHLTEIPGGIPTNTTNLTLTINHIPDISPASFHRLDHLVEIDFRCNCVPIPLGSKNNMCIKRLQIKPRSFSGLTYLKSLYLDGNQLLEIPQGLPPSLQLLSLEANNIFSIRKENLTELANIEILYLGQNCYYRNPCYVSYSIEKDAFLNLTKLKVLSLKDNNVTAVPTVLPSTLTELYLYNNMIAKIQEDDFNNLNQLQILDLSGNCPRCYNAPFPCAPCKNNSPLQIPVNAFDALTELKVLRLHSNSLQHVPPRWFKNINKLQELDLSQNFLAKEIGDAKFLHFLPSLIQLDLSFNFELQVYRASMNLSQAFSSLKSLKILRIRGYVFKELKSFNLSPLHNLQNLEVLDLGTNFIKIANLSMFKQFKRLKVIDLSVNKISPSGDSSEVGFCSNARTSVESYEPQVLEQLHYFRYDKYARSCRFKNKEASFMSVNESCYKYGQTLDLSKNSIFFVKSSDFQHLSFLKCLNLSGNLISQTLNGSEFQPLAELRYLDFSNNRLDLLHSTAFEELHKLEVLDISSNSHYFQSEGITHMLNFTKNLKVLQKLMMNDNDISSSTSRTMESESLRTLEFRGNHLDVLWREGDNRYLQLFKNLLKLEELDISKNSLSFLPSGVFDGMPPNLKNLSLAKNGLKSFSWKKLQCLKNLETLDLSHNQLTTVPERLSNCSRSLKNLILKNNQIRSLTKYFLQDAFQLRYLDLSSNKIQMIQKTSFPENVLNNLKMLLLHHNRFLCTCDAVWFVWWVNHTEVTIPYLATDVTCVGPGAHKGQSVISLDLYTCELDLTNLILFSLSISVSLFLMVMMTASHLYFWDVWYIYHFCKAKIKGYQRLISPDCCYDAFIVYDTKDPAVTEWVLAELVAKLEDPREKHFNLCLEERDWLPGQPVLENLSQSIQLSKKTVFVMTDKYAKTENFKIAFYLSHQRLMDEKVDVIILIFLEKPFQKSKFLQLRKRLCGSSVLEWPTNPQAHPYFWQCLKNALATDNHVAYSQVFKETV
The assay is described as follows: TLR7 inhibition reporter assay (HEK-Blue cells, SEAP reporter, gardiquimod stimulation). To be noted: HEK-Blue cells overexpressing human TLR7, SEAP reporter, gardiquimod 7.5 μM. As to the method: (§1) TLR7/8/9 Inhibition Reporter Assays
(§2) HEK-Blue™-cells (Invivogen) overexpressing human TLR7, TLR8 or TLR9 receptors were used for screening inhibitors of these receptors using an inducible SEAP (secreted embryonic alkaline phosphatase) reporter gene under the control of the IFN-β minimal promoter fused to five NF-κB and AP-1-binding sites. Briefly, cells are seeded into Greiner 384 well plates (15000 cells per well for TLR7, 20,000 for TLR8 and 25,000 for TLR9) and then treated with test compounds in DMSO to yield a final dose response concentration range of 0.05 nM-50 μM. After a 30 minute compound pre-treatment at room temperature, the cells are then stimulated with a TLR7 ligand (gardiquimod at a final concentration of 7.5 μM), TLR8 ligand (R848 at a final concentration of 15.9 μM) or TLR9 ligand (ODN2006 at a final concentration of 5 nM) to activate NF-κB and AP-1 which induce the production of SLAP After a 22 hour incubation at […], SLAP levels are determined with the addition of HLK-Blue™ Detection reagent (Invivogen), a cell culture medium that allows for detection of SLAP, according to manufacturer's specifications. The percent inhibition is determined as the […] in the HEK-Blue signal present in wells treated with agonist plus DMSO alone compared to wells treated with a known inhibitor.
(In general: A reporter such as luciferase makes a cellular process visible.)

The target in assay [2] is T2, human TLR8 (Homo sapiens, UniProt Q9NR97).
T2 construct: host or cells: HEK-Blue cells (HEK293-derived reporter line)
T2 sequence (Q9NR97 27-1041): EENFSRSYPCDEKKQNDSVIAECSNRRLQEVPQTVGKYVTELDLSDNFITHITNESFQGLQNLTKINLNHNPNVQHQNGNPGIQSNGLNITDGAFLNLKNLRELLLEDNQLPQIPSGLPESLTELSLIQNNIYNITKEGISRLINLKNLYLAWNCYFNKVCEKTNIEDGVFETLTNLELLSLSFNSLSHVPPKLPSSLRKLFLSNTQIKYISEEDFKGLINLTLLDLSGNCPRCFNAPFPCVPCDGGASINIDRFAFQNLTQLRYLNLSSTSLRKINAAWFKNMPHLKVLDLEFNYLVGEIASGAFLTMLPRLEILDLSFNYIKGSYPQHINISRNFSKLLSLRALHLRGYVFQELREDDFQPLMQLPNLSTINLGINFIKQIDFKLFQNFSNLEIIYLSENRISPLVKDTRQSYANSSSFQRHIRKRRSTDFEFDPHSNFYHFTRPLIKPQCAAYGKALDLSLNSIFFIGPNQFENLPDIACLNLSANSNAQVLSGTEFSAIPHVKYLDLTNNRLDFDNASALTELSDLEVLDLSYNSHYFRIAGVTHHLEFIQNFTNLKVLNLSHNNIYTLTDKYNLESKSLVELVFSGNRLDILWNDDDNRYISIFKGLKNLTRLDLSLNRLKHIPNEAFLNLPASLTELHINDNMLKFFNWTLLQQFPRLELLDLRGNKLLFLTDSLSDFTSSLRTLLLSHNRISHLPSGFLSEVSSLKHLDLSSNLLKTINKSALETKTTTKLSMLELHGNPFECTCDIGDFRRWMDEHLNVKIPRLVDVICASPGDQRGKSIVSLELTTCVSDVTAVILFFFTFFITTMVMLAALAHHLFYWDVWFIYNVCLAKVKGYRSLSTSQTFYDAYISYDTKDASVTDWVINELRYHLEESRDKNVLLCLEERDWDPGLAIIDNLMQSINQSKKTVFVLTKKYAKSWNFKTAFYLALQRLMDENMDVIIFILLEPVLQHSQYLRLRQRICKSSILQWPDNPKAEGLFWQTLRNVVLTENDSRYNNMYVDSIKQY
The assay is described as follows: TLR8 inhibition reporter assay (HEK-Blue cells, SEAP reporter, R848 stimulation). To be noted: HEK-Blue cells overexpressing human TLR8, SEAP reporter, R848 15.9 μM. As to the method:
as §1, §2

The target in assay [3] is T3, human TLR9 (Homo sapiens, UniProt Q9NR96).
T3 construct: host or cells: HEK-Blue cells (HEK293-derived reporter line)
T3 sequence (Q9NR96 26-1032): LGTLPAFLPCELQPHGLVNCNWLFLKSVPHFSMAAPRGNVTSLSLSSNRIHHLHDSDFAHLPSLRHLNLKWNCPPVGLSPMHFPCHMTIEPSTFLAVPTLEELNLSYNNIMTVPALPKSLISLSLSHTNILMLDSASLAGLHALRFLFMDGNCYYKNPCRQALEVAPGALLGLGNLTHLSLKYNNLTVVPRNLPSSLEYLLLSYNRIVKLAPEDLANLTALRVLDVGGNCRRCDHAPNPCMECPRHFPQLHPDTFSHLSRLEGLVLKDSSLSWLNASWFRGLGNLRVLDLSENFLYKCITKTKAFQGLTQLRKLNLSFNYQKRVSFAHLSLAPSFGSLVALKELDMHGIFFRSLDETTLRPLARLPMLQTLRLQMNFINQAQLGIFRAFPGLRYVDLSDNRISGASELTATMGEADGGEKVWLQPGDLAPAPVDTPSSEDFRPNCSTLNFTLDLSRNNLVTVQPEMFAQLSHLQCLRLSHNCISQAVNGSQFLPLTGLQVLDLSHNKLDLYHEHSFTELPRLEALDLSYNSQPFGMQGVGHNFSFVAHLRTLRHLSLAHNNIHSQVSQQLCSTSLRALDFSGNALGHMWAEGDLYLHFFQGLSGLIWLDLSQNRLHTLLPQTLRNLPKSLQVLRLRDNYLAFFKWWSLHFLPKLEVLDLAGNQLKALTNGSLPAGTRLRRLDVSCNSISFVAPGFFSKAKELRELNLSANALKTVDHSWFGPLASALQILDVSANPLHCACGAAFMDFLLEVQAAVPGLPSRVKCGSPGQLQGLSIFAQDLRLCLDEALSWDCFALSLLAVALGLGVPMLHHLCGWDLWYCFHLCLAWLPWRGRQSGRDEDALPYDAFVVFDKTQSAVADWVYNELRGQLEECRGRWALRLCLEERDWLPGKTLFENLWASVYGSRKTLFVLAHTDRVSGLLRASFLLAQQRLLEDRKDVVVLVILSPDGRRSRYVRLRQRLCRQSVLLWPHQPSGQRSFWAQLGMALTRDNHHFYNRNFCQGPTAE
The assay is described as follows: TLR9 inhibition reporter assay (HEK-Blue cells, SEAP reporter, ODN2006 stimulation). As to conditions: HEK-Blue cells overexpressing human TLR9, SEAP reporter, ODN2006 5 nM. The procedure:
as §1, §2

Take `CC(C)c1c(-c2ccnc3[nH]ccc23)[nH]c2ccc(C3CCNCC3)cc12` [Example 1, 4-(3-isopropyl-5-(piperidin-4-yl)-1H-indol-2-yl)-1H-pyrrolo[2,3-b]pyridine]: the half-inhibitory concentration (IC50) in assay [1] was less than 100 nM; in assay [2], less than 100 nM; in assay [3], 1000 to 50000 nM.
On to `Cc1c(-c2ccnc3[nH]ccc23)[nH]c2ccc(C3CCNCC3)cc12` [Example 2, 4-(3-methyl-5-(piperidin-4-yl)-1H-indol-2-yl)-1H-pyrrolo[2,3-b]pyridine], for which the 50% inhibitory concentration (IC50) in assay [1] is less than 100 nM; in assay [2], less than 100 nM; in assay [3], 1000 to 50000 nM.
`CC(C)c1c(-c2ccnc3c2ccn3S(C)(=O)=O)[nH]c2ccc(C3CCNCC3)cc12` [Example 3, 4-(3-isopropyl-5-(piperidin-4-yl)-1h-indol-2-yl)-1-(methylsulfonyl)-1H-pyrrolo[2,3-b]pyridine]: the values for the half-maximal inhibitory concentration (IC50) in assay [1], in assay [2] and in assay [3] were 100 to 1000 nM, less than 100 nM and 100 to 1000 nM, respectively.
On to `Cc1c(-c2ccnc3[nH]cc(C)c23)[nH]c2ccc(C3CCNCC3)cc12` [Example 4, 3-methyl-4-(3-methyl-5-(piperidin-4-yl)-1H-indol-2-yl)-1H-pyrrolo[2,3-b]pyridine], for which the IC50 in assay [1], in assay [2] and in assay [3] was 100 to 1000 nM each time.
As for `CC(C)c1c(-c2ccc3c(O)noc3c2)[nH]c2ccc(C3CCNCC3)cc12` [Example 5, 6-(3-isopropyl-5-(piperidin-4-yl)-1H-indol-2-yl)benzo[d]isoxazol-3-ol], the values for the half-inhibitory concentration (IC50) in assay [1], in assay [2] and in assay [3] were 100 to 1000 nM, 1000 to 50000 nM and 1000 to 50000 nM, respectively.
Take `Cc1nc2ccc(-c3[nH]c4ccc(C5CCNCC5)cc4c3C(C)C)cc2o1` [Example 6, 6-(3-isopropyl-5-(piperidin-4-yl)-1H-indol-2-yl)-2-methylbenzo[d]oxazole]: the 50% inhibitory concentration (IC50) in assay [1] is less than 100 nM; in assay [2] it was 100 to 1000 nM; in assay [3], 1000 to 50000 nM.
For `CC(C)c1c(-c2ccc3onc(N)c3c2)[nH]c2ccc(C3CCNCC3)cc12` [Example 7, 5-(3-isopropyl-5-(piperidin-4-yl)-1H-indol-2-yl)benzo[d]isoxazol-3-amine], the half-maximal inhibitory concentration (IC50) was less than 100 nM in assay [1], less than 100 nM in assay [2] and 100 to 1000 nM in assay [3].
`CC(C)c1c(-c2nc3c(N)ncnc3[nH]2)[nH]c2ccc(C3CCNCC3)cc12` [Example 8, 8-(3-isopropyl-5-(piperidin-4-yl)-1H-indol-2-yl)-9H-purin-6-amine]: the IC50 in assay [1] is 100 to 1000 nM; in assay [2] it was more than 3130 nM; in assay [3] it was 1000 to 50000 nM.
Turning to `CC(C)c1c(-c2ccc3ncsc3c2)[nH]c2ccc(C3CCNCC3)cc12` [Example 9, 6-(3-isopropyl-5-(piperidin-4-yl)-1H-indol-2-yl) benzo[d]thiazole], the IC50 in assay [1] is less than 100 nM; in assay [2] it was less than 100 nM; in assay [3], 1000 to 50000 nM.
As to `CC(C)c1c(-c2ccc3[nH]c(=O)oc3c2)[nH]c2ccc(C3CCNCC3)cc12` [Example 10, 6-(3-isopropyl-5-(piperidin-4-yl)-1H-indol-2-yl)benzo[d]oxazol-2(3H)-one], the half-inhibitory concentration (IC50) in assay [1] was less than 100 nM; in assay [2], less than 100 nM; in assay [3] it was 100 to 1000 nM.
`CC(C)c1c(-c2ccc3oc(=O)[nH]c3c2)[nH]c2ccc(C3CCNCC3)cc12` [Example 11, 5-(3-isopropyl-5-(piperidin-4-yl)-1H-indol-2-yl)benzo[d]oxazol-2(3H)-one]: the IC50 is less than 100 nM in assay [1], 100 to 1000 nM in assay [2] and 100 to 1000 nM in assay [3].
Regarding `CC(C)c1c(-c2ccc3scnc3c2)[nH]c2ccc(C3CCNCC3)cc12` [Example 12, 5-(3-isopropyl-5-(piperidin-4-yl)-1H-indol-2-yl)benzo[d]thiazole], the IC50 in assay [1] is 100 to 1000 nM; in assay [2], 1000 to 50000 nM; in assay [3] it was 100 to 1000 nM.
